The test system of the first test is RSV (Long). Description: RSV cytopathic effect (CPE)-based viral replication assay. The class given is cell-based, respiratory syncytial virus (RSV). The settings on record: human respiratory syncytial virus, HEp-2, 72 h, HEp-2 cells infected with RSV Long at MOI 0.015; 3 days at 37° C.; cell viability by CellTiter-Glo luminescence; read-out: EC50 (nm). In short, it runs like this:
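HEp-2 cells, 2,500 per well in DMEM with 2% heat-inactivated FBS, treated with 10-point compound dilutions and infected with RSV Long at MOI 0.015. After 3 days at 37 °C, 5% CO2, viability read by CellTiter-Glo luminescence; EC50 derived from CPE data.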
`NC1(CC(=O)N2CCC3(CC2)C(=O)N(Cc2ncc4ccccc4c2-c2cccnc2)c2cnccc23)CC1` [Example 145, 1-(2-(1-Aminocyclopropyl)acetyl)-1′-((4-(pyridin-3-yl)isoquinolin-3-yl)methyl)spiro[piperidine-4,3′-pyrrolo[2,3-c]pyridin]-2′(1′H)-one]: the EC50 is 8.1 nM.

On to `CS(=O)(=O)N1CCC2(CC1)C(=O)N(Cc1ncc3cc(Cl)ccc3c1-c1cncs1)c1ccccc12` [Example 169b, 1-((7-chloro-4-(thiazol-5-yl)isoquinolin-3-yl)methyl)-1′-(methylsulfonyl)spiro[indoline-3,4′-piperidin]-2-one], for which the EC50 stood at 1.3 nM. Still for that read-out and setting: the value for `CS(=O)(=O)N1CCC2(CC1)C(=O)N(Cc1ncc3ccccc3c1-c1ccc(C3(N)COC3)nc1)c1cnccc12` [Example 2038] was 11 nM; that for `CS(=O)(=O)N1CCC2(CC1)C(=O)N(Cc1ncc3ccccc3c1-c1cnco1)c1cnccc12` [Example 159b, 1-(methylsulfonyl)-1′-((4-(oxazol-5-yl)isoquinolin-3-yl)methyl)spiro[piperidine-4,3′-pyrrolo[2,3-c]pyridin]-2′(1′H)-one] was 7.8 nM. Still for that read-out and setting: the value for `NCCC(=O)N1CC2(C1)C(=O)N(Cc1ncc3ccccc3c1-c1cccnc1)c1ccccc12` [Example 150, 1-(3-Aminopropanoyl)-1′-((4-(pyridin-3-yl)isoquinolin-3-yl)methyl)spiro[azetidine-3,3′-indolin]-2′-one] was 6.6 nM; that for `COC(=O)N1CC2(C1)C(=O)N(Cc1ncc3cc(Cl)ccc3c1-c1cccnc1)c1cnccc12` [Example 161c, methyl 1′-((7-chloro-4-(pyridin-3-yl)isoquinolin-3-yl)methyl)-2′-oxo-1′,2′-dihydrospiro[azetidine-3,3′-pyrrolo[2,3-c]pyridine]-1-carboxylate] was 2.9 nM; that for `CS(=O)(=O)N1CCC2(CC1)C(=O)N(Cc1ncc3cc(F)ccc3c1-c1ccncc1)c1cnccc12` [Example 2035] was 2.8 nM. The same measure, in the same setting: the value for `NC1(c2ccc3c(CCCCO)c(Cn4c(=O)n(C5CC5)c5ccncc54)ncc3c2)COC1` [Example 46g, 3-((7-(3-Aminooxetan-3-yl)-4-(4-hydroxybutyl)isoquinolin-3-yl)methyl)-1-cyclopropyl-1H-imidazo[4,5-c]pyridin-2(3H)-one] was 8600 nM.

With `NC1(C(=O)N2CC3(C2)C(=O)N(Cc2ncc4ccccc4c2-c2ccc(S(N)(=O)=O)nc2)c2ccccc23)CC1` [Example 124, 5-(3-((1-(1-Aminocyclopropanecarbonyl)-2′-oxospiro[azetidine-3,3′-indolin]-1′-yl)methyl)isoquinolin-4-yl)pyridine-2-sulfonamide], the 50% effective concentration (EC50) stood at 9.8 nM. Still for that read-out and setting: with `NC(=O)c1ccc(-c2c(CN3C(=O)C4(CCN(C(=O)C(N)C(F)(F)F)CC4)c4ccncc43)ncc3ccccc23)cn1` (stereo not shown) [Example 2007] the figure was 4 nM; with `COC(=O)N1CC2(C1)C(=O)N(Cc1ncc3ccccc3c1-c1ccc(C(N)C(F)(F)F)nc1)c1ccccc12` (stereo not shown) [Example 157b, methyl 1′-((4-(6-(1-amino-2,2,2-trifluoroethyl)pyridin-3-yl)isoquinolin-3-yl)methyl)-2′-oxospiro[azetidine-3,3′-indoline]-1-carboxylate], 4 nM. On the same count and under the same terms, the value for `O=C(OC1CC1)N1CCC(n2c(=O)n(Cc3ncc4ccccc4c3CCCCO)c3cnccc32)CC1` [Example 35, cyclopropyl 4-(3-((4-(4-hydroxybutyl)isoquinolin-3-yl)methyl)-2-oxo-2,3-dihydro-1H-imidazo[4,5-c]pyridin-1-yl)piperidine-1-carboxylate] was 2.4 nM; that for `COC(=O)N1CCC(n2c(=O)n(Cc3ncc4ccccc4c3CCCCO)c3cncc(Cl)c32)CC1` [Example 15, Methyl 4-(7-chloro-3-((4-(4-hydroxybutyl)isoquinolin-3-yl)methyl)-2-oxo-2,3-dihydro-1H-imidazo[4,5-c]pyridin-1-yl)piperidine-1-carboxylate] was 2.2 nM; that for `NCc1ccc2c(CCCCO)c(Cn3c(=O)n(C4CC4)c4ccccc43)ncc2c1` [Example 27] was 17 nM.

For `COC(=O)N1CCC2(CC1)C(=O)N(Cc1ncc3ccccc3c1CCCCO)c1cnccc12` [Example 21b, Methyl 1′-((4-(4-hydroxybutyl)isoquinolin-3-yl)methyl)-2′-oxo-1′,2′-dihydrospiro[piperidine-4,3′-pyrrolo[2,3-c]pyridine]-1-carboxylate], the EC50 is 6.4 nM. `N#Cc1ccc2c(CCCCO)c(Cn3c(=O)n(C4CC4)c4ccncc43)ncc2c1` [Example 25, 3-((1-cyclopropyl-2-oxo-1H-imidazo[4,5-c]pyridin-3(2H)-yl)methyl)-4-(4-hydroxybutyl)isoquinoline-7-carbonitrile]: the EC50 was 280 nM. On to `NC1(C(=O)N2CCC3(CC2)C(=O)N(Cc2ncc4ccccc4c2-c2ccc(OC(F)(F)F)cc2)c2cnccc23)CC1` [Example 2036], for which the half-maximal effective concentration (EC50) was determined as 23 nM. Same read-out and setting: with `CC(C)(C)NC(=O)N1CC2(C1)C(=O)N(Cc1ncc3ccccc3c1CCCCO)c1ccccc12` [Example 56, N-(tert-butyl)-1′-((4-(4-hydroxybutyl)isoquinolin-3-yl)methyl)-2′-oxospiro[azetidine-3,3′-indoline]-1-carboxamide] the figure was 1.3 nM. On the same count and under the same terms, with `CN(C)C(=O)c1ccc(-c2c(CN3C(=O)C4(CN(C(=O)C5(N)CC5)C4)c4ccccc43)ncc3ccccc23)cn1` [Example 121b, 5-(3-((1-(1-Aminocyclopropanecarbonyl)-2′-oxospiro[azetidine-3,3′-indolin]-1′-yl)methyl)isoquinolin-4-yl)-N,N-dimethylpicolinamide] the figure was 2.4 nM; with `O=c1n(Cc2ncc3cc(Cl)ccc3c2CCCCO)c2cnccc2n1C1CC1` [Example 19b, 3-((7-chloro-4-(4-hydroxybutyl)isoquinolin-3-yl)methyl)-1-cyclopropyl-1H-imidazo[4,5-c]pyridin-2(3H)-one], 110 nM; with `CS(=O)(=O)N1CCC2(CC1)C(=O)N(Cc1ncc3ccccc3c1-c1ccncc1)c1cnccc12` [Example 2014], 2.6 nM. On the same count and under the same terms, the value for `N#Cc1ccc(-c2c(CN3c4ccccc4[C@]4(C[C@@H](O)C4)C3=O)ncc3ccccc23)cn1` [Example 83] was 9 nM; that for `CNC1(C(=O)N2CCC3(CC2)C(=O)N(Cc2ncc4ccccc4c2-c2ccc(F)nc2)c2cnccc23)CC1` [Example 111c, 1′-((4-(6-fluoropyridin-3-yl)isoquinolin-3-yl)methyl)-1-(1-(methylamino)cyclopropanecarbonyl)spiro[piperidine-4,3′-pyrrolo[2,3-c]pyridin-]2′(1′H)-one] was 1.4 nM.

Staying with this test, now noted: human respiratory syncytial virus, HEp-2, 72 h, read-out: EC50 (nm).
Consider `COC(=O)N1CC2(C1)C(=O)N(Cc1ncc3ccccc3c1-c1ccc(C#N)c(F)c1)c1ccccc12` [Example 93, Methyl 1′-((4-(4-cyano-3-fluorophenyl)isoquinolin-3-yl)methyl)-2′-oxospiro[azetidine-3,3′-indoline]-1-carboxylate], for which the concentration for a half-maximal effect (EC50) amounted to 4.4 nM. Same read-out and setting: with `CC(=O)N1CC2(C1)C(=O)N(Cc1ncc3ccccc3c1-c1cccnc1)c1ccccc12` [Example 153, 1-acetyl-1′-((4-(pyridin-3-yl)isoquinolin-3-yl)methyl)spiro[azetidine-3,3′-indolin]-2′-one] the figure was 5.5 nM.

Broadly, the EC50 is the concentration that produces a half-maximal response.

(Values after patent US20190002436A1, “RESPIRATORY SYNCYTIAL VIRUS INHIBITORS” (MEDIVIR AB, priority 2015, published 2019).)
